Laboratory results from US11000033B2, “Ketone or oxime compound, and herbicide” (NISSAN CHEMICAL CORPORATION, priority 2014, dated 2021).

Columns and labels:
Format in all cases: in vivo
[1] = tested on: Echinochloa oryzacola Vasing.; assay: Test Example 1: herbicidal activity, application before weed generation in submerged conditions (symbol A); settings: application herbicide amount 320 g/ha
Method in brief: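 Weeds are sown into submerged alluvial soil alongside transplanted 2.5-leaf rice, and the compound, as an emulsion diluted to a set rate, is applied onto the water before emergence. Rating on the 0–5 herbicidal-ratio scale follows 3 weeks of greenhouse growth at 25–30 °C.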

[2] = tested on: transplanted rice plant; assay: Test Example 1: effect on crop, application before weed generation in submerged conditions (symbol a); settings: application herbicide amount 320 g/ha
Method in brief: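 Alluvial soil pots flooded to 4 cm water, sown with Echinochloa oryzacola, Scirpus juncoides and Monochoria vaginalis, then transplanted with 2.5 leaf stage rice seedlings; pre-emergence application. Greenhouse 25° C. to 30° C.; scored 0–5 by herbicidal ratio 3 weeks after application.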

[3] = tested on: Echinochloa crus-galli var. crus-galli; assay: Test Example 3: herbicidal effect by foliage application, Wagner pot (symbol H); settings: application herbicide amount 320 g/ha
Method in brief: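 Rating at 3 weeks post-spray, by defined criteria. Treatment: emulsion diluted with water to a predetermined amount, applied evenly to foliage of 14-day-old plants raised in alluvial soil flooded 0.1–0.5 cm deep at 25–30 °C, rice co-sown.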

[4] = tested on: Stellaria media; assay: Test Example 4: herbicidal effect by soil treatment (symbol P); settings: application herbicide amount 320 g/ha
Method in brief: (§1)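 Seeds were sown in sterilized diluvial soil, covered with about 1.5 cm of soil, and the soil surface was sprayed with a water-diluted emulsion of the compound at a predetermined rate. Plants grew in a greenhouse at 25° C. to 30° C.; effects were scored visually 3 weeks after application.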

[5] = tested on: Veronica persica; assay: Test Example 4: herbicidal effect by soil treatment (symbol R); settings: application herbicide amount 320 g/ha
Method in brief: as §1

[6] = tested on: corn; assay: Test Example 4: effect on crop by soil treatment (symbol c); settings: application herbicide amount 320 g/ha
Method in brief: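 Seeds were sown in spots on sterilized diluvial soil in a plastic box and covered with about 1.5 cm of soil. Plants were then grown in a greenhouse at 25° C. to 30° C.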

[7] = tested on: soybean; assay: Test Example 4: effect on crop by soil treatment (symbol d); settings: application herbicide amount 320 g/ha
Method in brief: (§2)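 Greenhouse culture at 25° C. to 30° C. followed sowing of seed in spots on sterilized diluvial soil with a soil cover close to 1.5 cm thick.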

[8] = tested on: beet; assay: Test Example 4: effect on crop by soil treatment (symbol f); settings: application herbicide amount 320 g/ha
Method in brief: as §2

[9] = tested on: Alopecurus myosuroides; assay: Test Example 5: herbicidal effect by foliage application, plastic box (symbol J); settings: 320 g/ha, 3 weeks after application
Method in brief: (§3)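 Seeds were sown in sterilized diluvial soil, covered with about 1.5 cm of soil and grown 14 days in a greenhouse at 25° C. to 30° C. An emulsifiable formulation diluted in water to a set rate was sprayed over foliage, and injury was scored 3 weeks later.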

[10] = tested on: Abutilon theophrasti; assay: Test Example 5: herbicidal effect by foliage application, plastic box (symbol M); settings: 320 g/ha, 3 weeks after application
Method in brief: as §3

[11] = tested on: Galium spurium; assay: Test Example 5: herbicidal effect by foliage application, plastic box (symbol Q); settings: 320 g/ha, 3 weeks after application
Method in brief: as §3

[12] = tested on: soybean; assay: Test Example 5: effect on crop by foliage application, plastic box (symbol d); settings: 320 g/ha, 3 weeks after application
Method in brief: (§4)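 Diluvial soil, sterilized and boxed (21 × 13 × 7 cm), received spot-sown seed covered by about 1.5 cm soil; plants were then greenhouse-grown at 25–30° C.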

[13] = tested on: rice plant; assay: Test Example 5: effect on crop by foliage application, plastic box (symbol b); settings: 320 g/ha, 3 weeks after application
Method in brief: as §4

[14] = tested on: wheat; assay: Test Example 5: effect on crop by foliage application, plastic box (symbol e); settings: 320 g/ha, 3 weeks after application
Method in brief: as §4

[15] = tested on: beet; assay: Test Example 5: effect on crop by foliage application, plastic box (symbol f); settings: 320 g/ha, 3 weeks after application
Method in brief: as §4

Structure (SMILES) | Herbicidal effect grade, A: Echinochloa oryzacola Vasing. [1] | Effect grade on crop, a: transplanted rice plant [2] | herbicidal effect on H (Echinochloa crus-galli var. crus-galli), grade 0-5 [3] | Herbicidal effect grade, P: Stellaria media [4] | Herbicidal effect grade, R: Veronica persica [5] | Effect on crop grade, c: corn [6] | Effect on crop grade, d: soybean [7] | Effect on crop grade, f: beet [8] | J: Alopecurus myosuroides, herbicidal effect (criteria of Test Example 1) [9] | M: Abutilon theophrasti, herbicidal effect (criteria of Test Example 1) [10] | Q: Galium spurium, herbicidal effect (criteria of Test Example 1) [11] | d: soybean, effect on crop (criteria of Test Example 1) [12] | b: directly sowed rice plant, effect on crop (criteria of Test Example 1) [13] | e: wheat, effect on crop (criteria of Test Example 1) [14] | f: beet, effect on crop (criteria of Test Example 1) [15]
CON=C(C)CC1CC(O)=C(c2c(C)cc(-c3ccc(Cl)cc3Cl)cc2C)C1=O (stereo not drawn) [6-088] | 4 (Herbicidal ratio of 70% or higher and lower than 90%) | 3 (Herbicidal ratio of 40% or higher and lower than 70%) | 5 (Herbicidal ratio of 90% or more (almost completely withered)) | 5 (Herbicidal ratio of 90% or more (almost completely withered)) | 4 (Herbicidal ratio of 70% or higher and lower than 90%) | 0 (Herbicidal ratio of 5% or lower (almost no effect)) | 5 (Herbicidal ratio of 90% or more (almost completely withered)) | 0 (Herbicidal ratio of 5% or lower (almost no effect)) | 5 (Herbicidal ratio of 90% or more (almost completely withered)) | 3 (Herbicidal ratio of 40% or higher and lower than 70%) | 4 (Herbicidal ratio of 70% or higher and lower than 90%) | 5 (Herbicidal ratio of 90% or more (almost completely withered)) | 5 (Herbicidal ratio of 90% or more (almost completely withered)) | 4 (Herbicidal ratio of 70% or higher and lower than 90%) | 0 (Herbicidal ratio of 5% or lower (almost no effect))
CC(=O)CC1CC(O)=C(c2c(C)cc(-c3ccccc3)cc2C)C1=O (stereo not drawn) [7-004] | 5 (Herbicidal ratio of 90% or more (almost completely withered)) | 5 (Herbicidal ratio of 90% or more (almost completely withered)) | 5 (Herbicidal ratio of 90% or more (almost completely withered)) | 0 (Herbicidal ratio of 5% or lower (almost no effect)) | 0 (Herbicidal ratio of 5% or lower (almost no effect)) | 4 (Herbicidal ratio of 70% or higher and lower than 90%) | 0 (Herbicidal ratio of 5% or lower (almost no effect)) | 0 (Herbicidal ratio of 5% or lower (almost no effect)) | 5 (Herbicidal ratio of 90% or more (almost completely withered)) | 0 (Herbicidal ratio of 5% or lower (almost no effect)) | 0 (Herbicidal ratio of 5% or lower (almost no effect)) | 4 (Herbicidal ratio of 70% or higher and lower than 90%) | 5 (Herbicidal ratio of 90% or more (almost completely withered)) | 0 (Herbicidal ratio of 5% or lower (almost no effect)) | 0 (Herbicidal ratio of 5% or lower (almost no effect))
CON=C(C)CC1CC(O)=C(c2c(OC)cc(C)cc2OC)C1=O (stereo not drawn) [6-103] | 5 (Herbicidal ratio of 90% or more (almost completely withered)) | 5 (Herbicidal ratio of 90% or more (almost completely withered)) | 5 (Herbicidal ratio of 90% or more (almost completely withered)) | 0 (Herbicidal ratio of 5% or lower (almost no effect)) | 0 (Herbicidal ratio of 5% or lower (almost no effect)) | 5 (Herbicidal ratio of 90% or more (almost completely withered)) | 0 (Herbicidal ratio of 5% or lower (almost no effect)) | 0 (Herbicidal ratio of 5% or lower (almost no effect)) | 5 (Herbicidal ratio of 90% or more (almost completely withered)) | 2 (Herbicidal ratio of 20% or higher and lower than 40%) | 0 (Herbicidal ratio of 5% or lower (almost no effect)) | 0 (Herbicidal ratio of 5% or lower (almost no effect)) | 5 (Herbicidal ratio of 90% or more (almost completely withered)) | 5 (Herbicidal ratio of 90% or more (almost completely withered)) | 0 (Herbicidal ratio of 5% or lower (almost no effect))
CON=C(C)CC1CC(OC(=O)COc2ccccc2)=C(c2c(C)cc(-c3ccc(Cl)cc3Cl)cc2C)C1=O (stereo not drawn) [6-092] | 3 (Herbicidal ratio of 40% or higher and lower than 70%) | 0 (Herbicidal ratio of 5% or lower (almost no effect)) | 5 (Herbicidal ratio of 90% or more (almost completely withered)) | 0 (Herbicidal ratio of 5% or lower (almost no effect)) | 0 (Herbicidal ratio of 5% or lower (almost no effect)) | 0 (Herbicidal ratio of 5% or lower (almost no effect)) | 0 (Herbicidal ratio of 5% or lower (almost no effect)) | 0 (Herbicidal ratio of 5% or lower (almost no effect)) | 5 (Herbicidal ratio of 90% or more (almost completely withered)) | 0 (Herbicidal ratio of 5% or lower (almost no effect)) | 4 (Herbicidal ratio of 70% or higher and lower than 90%) | 1 (Herbicidal ratio of 5% or higher and lower than 20%) | 4 (Herbicidal ratio of 70% or higher and lower than 90%) | 0 (Herbicidal ratio of 5% or lower (almost no effect)) | 0 (Herbicidal ratio of 5% or lower (almost no effect))
CON=C(C)CC1CC(OC(=O)N2CCCCC2)=C(c2c(C)cc(C)cc2OC)C1=O (stereo not drawn) [6-111] | 5 (Herbicidal ratio of 90% or more (almost completely withered)) | 5 (Herbicidal ratio of 90% or more (almost completely withered)) | 5 (Herbicidal ratio of 90% or more (almost completely withered)) | 0 (Herbicidal ratio of 5% or lower (almost no effect)) | 0 (Herbicidal ratio of 5% or lower (almost no effect)) | 0 (Herbicidal ratio of 5% or lower (almost no effect)) | 0 (Herbicidal ratio of 5% or lower (almost no effect)) | 0 (Herbicidal ratio of 5% or lower (almost no effect)) | 5 (Herbicidal ratio of 90% or more (almost completely withered)) | 2 (Herbicidal ratio of 20% or higher and lower than 40%) | 0 (Herbicidal ratio of 5% or lower (almost no effect)) | 1 (Herbicidal ratio of 5% or higher and lower than 20%) | 5 (Herbicidal ratio of 90% or more (almost completely withered)) | 4 (Herbicidal ratio of 70% or higher and lower than 90%) | 0 (Herbicidal ratio of 5% or lower (almost no effect))
